Source: patent US20240245696A1, “INHIBITORS OF DNA PK AND USES THEREOF” (BioVentures, LLC, priority 2017, published 2024)

Tested on: IL-2
Test: Secreted IL-2 ELISA, PBMCs stimulated with PHA+PMA
Assay type: cell-based, human
Conditions: PBMC, activation with PMA+PHA
Description: Cell Culture: Human peripheral blood mononuclear cells (PBMC,) and Jurkat cells were purchased from ATCC (PCS-800-011, Manassas, VA). Cells were maintained at 37° C. in a humidified atmosphere composed of 5% CO2. Jurkat cells were cultured in RPMI 1640 medium which was supplemented with 10% FCS and human PBMC was cultured in RPMI 1640 medium which was supplemented with 10% FCS and pen/strep. Both Jurkat cells and PBMC were stimulated with PHA (50 ng/mL) and PMA (1 μg/mL) for 24 hours prior to harvesting for IL-2 detection or 6 hours prior for western blot analysis. The NU7441 DNA-PKcs inhibitor was added at varying concentrations at the time of stimulation. Detection of secreted IL-2: Secreted IL-2 was detected by Human IL-2 ELISA Kit from Thermo Scientific (Waltham, MA). The manufacturer's protocol was followed. Prior to harvesting, cells were treated with PHA (50 ng/ml) and PMA (1 μg/mL) for 24 hours with or without the NU7441 inhibitor. Jurkat cells stimulated with the anti-CD28/CD3 dynabeads were done so according to the manufacturer's protocol at a 1:1 ratio for 24 hours prior to harvesting. After stimulation, supernatant samples of Jurkat cells or PBMCs (2 million cells/mL) were collected and diluted 10 times before the assay. […] Stop solution was added and the absorbance of each well was read at 450 nm using the plate reader.

O=c1cc(N2CCOCC2)oc2c(-c3cccc4c3sc3ccccc34)cccc12 [NU7441]
level of IL-2 produced: significantly reduce IL-2 production
